Test results taken from ChEMBL document CHEMBL1201862, “PubChem BioAssay data set” (2004).
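Where inhibition never reached the appropriate level, the endpoint shown equals the highest concentration tested. Otherwise, values were interpolated linearly from a five-concentration, 48-hour dose response in 96-well plates. Here, GI50 denotes the concentration required for 50% inhibition of growth.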 Active and inactive are the calls of the source. Rule as the data show it: active = GI50 up to about 1.1 µM and inactive = higher.

Assays:
Assay in all cases: inhibition of tumour cell growth, NCI panel, 48 h
[1] = system: SF-295
[2] = system: Malme-3M
[3] = system: OVCAR-4
[4] = system: NCI/ADR-RES
[5] = system: K562
[6] = system: NCI-H522
[7] = system: SNB-19
[8] = system: SNB-75
[9] = system: HCT-15
[10] = system: LOX IMVI
[11] = system: OVCAR-3
[12] = system: UO-31
[13] = system: KM12
[14] = system: A498
[15] = system: U-251
[16] = system: MDA-N
[17] = system: HOP-62
[18] = system: SF-539

Row | SMILES | GI50 [1] | GI50 [2] | GI50 [3] | GI50 [4] | GI50 [5] | GI50 [6] | GI50 [7] | GI50 [8] | GI50 [9] | GI50 [10] | GI50 [11] | GI50 [12] | GI50 [13] | GI50 [14] | GI50 [15] | GI50 [16] | GI50 [17] | GI50 [18]
1 | CCOc1ccccc1Nc1ccc(N)cc1S(=O)(=O)O | > 100 µM (inactive) | > 100 µM (inactive) | > 100 µM (inactive) | > 100 µM (inactive) | > 100 µM (inactive) | > 100 µM (inactive) | > 100 µM (inactive) | > 100 µM (inactive) | > 100 µM | > 100 µM (inactive) | > 100 µM (inactive) | > 100 µM (inactive) | > 100 µM (inactive) | > 100 µM (inactive) | > 100 µM (inactive) | > 100 µM (inactive) | > 100 µM (inactive) | –
2 | COC(=O)c1cc(CC2Cc3cc4c(cc3C2)CCC4)cc2c1CCC2 | > 100 µM (inactive) | > 100 µM (inactive) | > 100 µM (inactive) | > 100 µM (inactive) | > 100 µM (inactive) | 57.4 µM (inactive) | > 100 µM (inactive) | > 100 µM (inactive) | 67.5 µM | 56.5 µM (inactive) | > 100 µM (inactive) | > 100 µM (inactive) | 61.5 µM (inactive) | > 100 µM (inactive) | > 100 µM (inactive) | 60.3 µM (inactive) | > 100 µM (inactive) | > 100 µM (inactive)
3 | CC(C)(C)c1cc(C(C)(C)C)c2sc(=O)oc2c1O | 11.4 µM (inactive) | 16.5 µM (inactive) | 13.6 µM (inactive) | 16.3 µM (inactive) | 10.1 µM (inactive) | 13.7 µM (inactive) | 17.3 µM (inactive) | 13.7 µM (inactive) | 12.4 µM | 14 µM (inactive) | 11.8 µM (inactive) | 11.6 µM (inactive) | 14.1 µM (inactive) | 13.7 µM (inactive) | 14.2 µM (inactive) | 13.5 µM (inactive) | 17 µM (inactive) | 16.1 µM (inactive)
4 | Oc1c(C2=N[C@H]3CCCC[C@@H]3N2)ccc2ccccc12 | – | > 100 µM (inactive) | > 100 µM (inactive) | > 47.6 µM (inactive) | > 100 µM (inactive) | > 100 µM (inactive) | > 40.8 µM (inactive) | > 69.2 µM (inactive) | > 100 µM | > 100 µM (inactive) | > 100 µM (inactive) | > 100 µM (inactive) | > 100 µM (inactive) | > 100 µM (inactive) | > 100 µM (inactive) | > 100 µM (inactive) | > 44.7 µM (inactive) | > 59.6 µM (inactive)
5 | COP(=O)(OC)[C@@](O)(c1ccccc1)[C@@H](O)[C@@H](O)c1ccccc1 | > 100 µM (inactive) | > 100 µM (inactive) | > 100 µM (inactive) | > 100 µM (inactive) | – | 37.4 µM (inactive) | > 100 µM (inactive) | > 100 µM (inactive) | > 100 µM | 17.8 µM (inactive) | > 100 µM (inactive) | > 100 µM (inactive) | > 100 µM (inactive) | > 100 µM (inactive) | 88.5 µM (inactive) | 85.3 µM (inactive) | – | 33.7 µM (inactive)
6 | Cn1c2ccc(Cl)cc2c2ccc3c(c21)C(=O)C=CC3=O | > 10 µM (inactive) | > 10 µM (inactive) | > 10 µM (inactive) | > 10 µM (inactive) | 9.14 µM (inactive) | > 10 µM (inactive) | > 10 µM (inactive) | > 10 µM (inactive) | > 10 µM | > 10 µM (inactive) | > 10 µM (inactive) | – | > 10 µM (inactive) | > 10 µM (inactive) | > 10 µM (inactive) | > 10 µM (inactive) | > 10 µM (inactive) | > 10 µM (inactive)
7 | CC(C)=CCC[C@@H](C)C1=C(Nc2ccccc2Cl)C(=O)C(C)=C(O)C1=O | 2.88 µM (inactive) | 4.29 µM (inactive) | 5.53 µM (inactive) | 1.1 µM (active) | 17.1 µM (inactive) | 2.57 µM (inactive) | 4.49 µM (inactive) | 1.87 µM (inactive) | 2.38 µM | 3.26 µM (inactive) | 3.36 µM (inactive) | 2.89 µM (inactive) | 3.08 µM (inactive) | 5.42 µM (inactive) | 4.27 µM (inactive) | 4.5 µM (inactive) | 3.45 µM (inactive) | 3.79 µM (inactive)
8 | O=C1Nc2ccccc2/C1=N/NC(=S)N1CCCCCC1 | 1 µM (active) | 0.272 µM (active) | 1.38 µM (inactive) | 0.0769 µM (active) | – | 2.47 µM (inactive) | 1.54 µM (inactive) | 1.69 µM (inactive) | 0.45 µM | 0.507 µM (active) | 0.163 µM (active) | 0.35 µM (active) | 0.283 µM (active) | 1.07 µM (active) | 1.11 µM (active) | 2.8 µM (inactive) | 0.242 µM (active) | 0.168 µM (active)
9 | Nc1c(Cl)cc(-c2nc3ccccc3s2)cc1Cl | > 100 µM (inactive) | > 100 µM (inactive) | – | > 100 µM (inactive) | > 100 µM (inactive) | > 100 µM (inactive) | > 100 µM (inactive) | > 100 µM (inactive) | > 100 µM | – | > 100 µM (inactive) | > 100 µM (inactive) | > 100 µM (inactive) | 0.288 µM (active) | > 100 µM (inactive) | > 100 µM (inactive) | > 100 µM (inactive) | > 100 µM (inactive)
10 | CC1=NN(c2cc(Cl)c(S(=O)(=O)O)cc2Cl)C2(C1)C(Cl)C(=O)N2c1nc2ccccc2s1 (stereo not given) | – | > 100 µM (inactive) | > 100 µM (inactive) | > 100 µM (inactive) | > 100 µM (inactive) | 19.6 µM (inactive) | > 100 µM (inactive) | > 100 µM (inactive) | > 100 µM | 29.4 µM (inactive) | – | 22.2 µM (inactive) | 97.9 µM (inactive) | 80 µM (inactive) | > 100 µM (inactive) | > 100 µM (inactive) | – | > 100 µM (inactive)
11 | O=P1(Oc2ccc(Cl)cc2)OCCS1 (stereo not given) | > 100 µM (inactive) | > 100 µM (inactive) | – | > 100 µM (inactive) | – | > 100 µM (inactive) | > 100 µM (inactive) | > 100 µM (inactive) | > 100 µM | > 100 µM (inactive) | – | > 100 µM (inactive) | – | > 100 µM (inactive) | > 100 µM (inactive) | > 100 µM (inactive) | > 100 µM (inactive) | > 100 µM (inactive)
12 | Oc1cccc(-c2nc3cc(F)ccc3s2)c1 | 20.6 µM (inactive) | 16.2 µM (inactive) | 9.42 µM (inactive) | 17.4 µM (inactive) | 27.5 µM (inactive) | 10.6 µM (inactive) | 24.4 µM (inactive) | 11.1 µM (inactive) | 11.2 µM | 15.6 µM (inactive) | 11.5 µM (inactive) | 14.5 µM (inactive) | 11.9 µM (inactive) | 1.11 µM (active) | 24.5 µM (inactive) | 19.4 µM (inactive) | – | 19.4 µM (inactive)
